Results from patent EP0465716A1, “Optically active thiazetoquino-line-3-carboxylic acid compound, method for preparation thereof, and a pharmaceutical composition comprising the same” (priority 1990, dated 1992).
≈ marks a conversion by molar mass, not a printed value.

Assays:
[1] = test system: Klebsiella pneumoniae PCI-602; assay: MIC, twofold agar dilution method (standard laboratory strain); format: cell-based; conditions: PCI602; Klebsiella pneumoniae PCI-602, Gram -; 10^6 cfu/ml; 18 hrs at 37 °C; read-out: MIC
Description: Minimum inhibitory concentrations (MIC) of test compounds were determined by the twofold agar dilution method (Chemotherapy, 29(1), 76(1981)). Overnight cultures in Mueller-Hinton broth were suspended by buffered saline gelatin. One loopful of the bacterial suspension (10⁶ or 10⁸ colony-forming units/ml) was incubated onto the plates containing test compounds. The plates were incubated for 18 hrs at 37 °C. The MIC was defined by the lowest concentration of the drug that inhibited visible growth of bacteria.

[2] = test system: Staphylococcuss aureus HPC 308; assay: MIC, twofold agar dilution method (clinically isolated strain); format: cell-based; conditions: Staphylococcuss aureus HPC 308, Gram +; 10^6 cfu/ml; 18 hrs at 37 °C
Description: (§1) Overnight cultures in Mueller-Hinton broth were suspended by buffered saline gelatin. One loopful of the bacterial suspension (10⁶ or 10⁸ colony-forming units/ml) was incubated onto the plates containing test compounds. The plates were incubated for 18 hrs at 37 °C. The MIC was defined by the lowest concentration of the drug that inhibited visible growth of bacteria.

[3] = test system: Serratia marcescens HNR 1767; assay: as above; format: cell-based; conditions: HNR1767; Serratia marcescens HNR 1767, Gram -; 10^6 cfu/ml; 18 hrs at 37 °C
Description: as §1

[4] = test system: Enterobacter cloacae HNR 1939; assay: as above; format: cell-based; conditions: HNR1939; Enterobacter cloacae HNR 1939, Gram -; 10^6 cfu/ml; 18 hrs at 37 °C
Description: as §1

[5] = test system: Klebsiella pneumoniae HNR 858; assay: as above; format: cell-based; conditions: HNR858; Klebsiella pneumoniae HNR 858, Gram -; 10^6 cfu/ml; 18 hrs at 37 °C
Description: as §1

[6] = test system: Acinetobacter calcoaceticus HNR 939; assay: as above; format: cell-based; conditions: HNR939; Acinetobacter calcoaceticus HNR 939, Gram -; 10^6 cfu/ml; 18 hrs at 37 °C
Description: as §1

[7] = test system: Enterobacter cloacae HNR 1946; assay: as above; format: cell-based; conditions: HNR1946; Enterobacter cloacae HNR 1946, Gram -; 10^6 cfu/ml; 18 hrs at 37 °C
Description: as §1

[8] = test system: Enterococcus faecalis HPC 948; assay: as above; format: cell-based; conditions: HPC948; Enterococcus faecalis HPC 948, Gram +; 10^6 cfu/ml; 18 hrs at 37 °C
Description: as §1

[9] = test system: Pseudomonas aeruginosa HNR 1472; assay: as above; format: cell-based; conditions: HNR1472; Pseudomonas aeruginosa HNR 1472, Gram -; 10^6 cfu/ml; 18 hrs at 37 °C
Description: as §1

[10] = test system: Staphylococcuss aureus HPC 527; assay: as above; format: cell-based; conditions: Staphylococcuss aureus HPC 527, Gram +; 10^6 cfu/ml; 18 hrs at 37 °C
Description: as §1

[11] = test system: Serratia marcescens HNR 1792; assay: as above; format: cell-based; conditions: HNR1792; Serratia marcescens HNR 1792, Gram -; 10^6 cfu/ml; 18 hrs at 37 °C
Description: as §1

[12] = test system: Enterococcus faecalis HPC 984; assay: as above; format: cell-based; conditions: HPC984; Enterococcus faecalis HPC 984, Gram +; 10^6 cfu/ml; 18 hrs at 37 °C
Description: as §1

[13] = test system: Klebsiella pneumoniae HNR 828; assay: as above; format: cell-based; conditions: HNR828; Klebsiella pneumoniae HNR 828, Gram -; 10^6 cfu/ml; 18 hrs at 37 °C
Description: as §1

[14] = test system: Klebsiella pneumoniae HNR 869; assay: as above; format: cell-based; conditions: HNR869; Klebsiella pneumoniae HNR 869, Gram -; 10^6 cfu/ml; 18 hrs at 37 °C
Description: as §1

[15] = test system: Staphylococcuss aureus HPC 292; assay: as above; format: cell-based; conditions: Staphylococcuss aureus HPC 292, Gram +; 10^6 cfu/ml; 18 hrs at 37 °C
Description: as §1

[16] = test system: Pseudomonas aeruginosa HNR 1489; assay: as above; format: cell-based; conditions: HNR1489; Pseudomonas aeruginosa HNR 1489, Gram -; 10^6 cfu/ml; 18 hrs at 37 °C
Description: as §1

[17] = test system: Acinetobacter calcoaceticus HNR 904; assay: as above; format: cell-based; conditions: HNR904; Acinetobacter calcoaceticus HNR 904, Gram -; 10^6 cfu/ml; 18 hrs at 37 °C
Description: as §1

[18] = test system: Enterococcus faecalis HPC 975; assay: as above; format: cell-based; conditions: HPC975; Enterococcus faecalis HPC 975, Gram +; 10^6 cfu/ml; 18 hrs at 37 °C
Description: as §1

[19] = test system: Enterobacter cloacae HNR 1941; assay: as above; format: cell-based; conditions: HNR1941; Enterobacter cloacae HNR 1941, Gram -; 10^6 cfu/ml; 18 hrs at 37 °C
Description: as §1

[20] = test system: Serratia marcescens HNR 1544; assay: as above; format: cell-based; conditions: HNR1544; Serratia marcescens HNR 1544, Gram -; 10^6 cfu/ml; 18 hrs at 37 °C
Description: as §1

[21] = test system: Acinetobacter calcoaceticus HNR 916; assay: as above; format: cell-based; conditions: HNR916; Acinetobacter calcoaceticus HNR 916, Gram -; 10^6 cfu/ml; 18 hrs at 37 °C
Description: as §1

[22] = test system: Pseudomonas aeruginosa HNR 1537; assay: as above; format: cell-based; conditions: HNR1537; Pseudomonas aeruginosa HNR 1537, Gram -; 10^6 cfu/ml; 18 hrs at 37 °C
Description: as §1

[23] = test system: Escherichia coli NIHJ JC-2; assay: MIC, twofold agar dilution method (standard laboratory strain); format: cell-based; conditions: NIHJJC2; Escherichia coli NIHJ JC-2, Gram -; 10^6 cfu/ml; 18 hrs at 37 °C
Description: as §1

[24] = test system: Serratia marcescens IAM 1184; assay: as above; format: cell-based; conditions: IAM1184; Serratia marcescens IAM 1184, Gram -; 10^6 cfu/ml; 18 hrs at 37 °C
Description: as §1

[25] = test system: Pseudomonas aeruginosa IFO 3445; assay: as above; format: cell-based; conditions: IFO3445; Pseudomonas aeruginosa IFO 3445, Gram -; 10^6 cfu/ml; 18 hrs at 37 °C
Description: as §1

[26] = test system: Staphylococuss aureus FDA 209PJC-1; assay: as above; format: cell-based; conditions: Staphylococuss aureus FDA 209PJC-1, Gram +; 10^6 cfu/ml; 18 hrs at 37 °C
Description: as §1

[27] = test system: Enterobacter cloacae 963; assay: as above; format: cell-based; conditions: Enterobacter cloacae 963, Gram -; 10^6 cfu/ml; 18 hrs at 37 °C
Description: as §1

[28] = test system: Male mice of ddY strain; assay: Convulsion inducing activity in combination with fenbufen; conditions: thirty minutes after fenbufen 100 mg/kg orally
Description: Male mice of ddY strain, 5 weeks old, were used. Fenbufen suspended in 0.5 % carboxymethylcellulose was administered orally at a dose of 100 mg/kg. After thirty minutes, test compounds suspended in 0.5 % carboxymethylcellulose were injected intraperitoneally (i.p.) at a dose of 100 mg/kg or 300 mg/kg.

Structure (SMILES) | MIC [1] [µg/mL] | MIC [2] [µg/mL] | MIC [3] [µg/mL] | MIC [4] [µg/mL] | MIC [5] [µg/mL] | MIC [6] [µg/mL] | MIC [7] [µg/mL] | MIC [8] [µg/mL] | MIC [9] [µg/mL] | MIC [10] [µg/mL] | MIC [11] [µg/mL] | MIC [12] [µg/mL] | MIC [13] [µg/mL] | MIC [14] [µg/mL] | MIC [15] [µg/mL] | MIC [16] [µg/mL] | MIC [17] [µg/mL] | MIC [18] [µg/mL] | MIC [19] [µg/mL] | MIC [20] [µg/mL] | also measured
CC1Sc2c(C(=O)O)c(=O)c3cc(F)c(N4CCC(N)C4)cc3n21 (stereo not drawn) [Ref. Drug D, 7-(3-amino-1-pyrrolidinyl)-6-fluoro-1-methyl-4-oxo-1H,4H-[1,3]thiazeto[3,2-a]quinoline-3-carboxylic acid] | 0.012 (≈ 0.0343 µM) | 25 (≈ 71.6 µM) | > 100 | 0.39 (≈ 1.12 µM) | 0.39 (≈ 1.12 µM) | 6.25 (≈ 17.9 µM) | 0.78 (≈ 2.23 µM) | 3.13 (≈ 8.96 µM) | 50 (≈ 143 µM) | 0.1 (≈ 0.286 µM) | 50 (≈ 143 µM) | 0.39 (≈ 1.12 µM) | 50 (≈ 143 µM) | 3.13 (≈ 8.96 µM) | > 100 | 0.1 (≈ 0.286 µM) | > 100 | > 100 | > 100 | 0.1 (≈ 0.286 µM) | MIC [21]: 0.39 µg/mL (≈ 1.12 µM); MIC [22]: 1.56 µg/mL (≈ 4.46 µM); MIC [23]: 0.05 µg/mL (≈ 0.143 µM); MIC [24]: 0.1 µg/mL (≈ 0.286 µM); MIC [25]: 0.1 µg/mL (≈ 0.286 µM); MIC [26]: 0.05 µg/mL (≈ 0.143 µM); MIC [27]: 0.05 µg/mL (≈ 0.143 µM); Number of convulsion induced / Number of animals ([28]; 100 mg/kg (i.p.)): 0 / 6; Number of convulsion induced / Number of animals ([28]; 300 mg/kg (i.p.)): 0 / 6
CC1Sc2c(C(=O)O)c(=O)c3cc(F)c(N4CCNCC4)c(F)c3n21 (stereo not drawn) [Ref. Drug C, 6,8-difluoro-1-methyl-4-oxo-7-(1-piperazinyl)-1H,4H-[1,3]thiazeto[3,2-a]quinoline-3-carboxylic acid] | 0.025 (≈ 0.068 µM) | 6.25 (≈ 17 µM) | 12.5 (≈ 34 µM) | 0.39 (≈ 1.06 µM) | 0.39 (≈ 1.06 µM) | 3.13 (≈ 8.52 µM) | 0.39 (≈ 1.06 µM) | 3.13 (≈ 8.52 µM) | 6.25 (≈ 17 µM) | 0.2 (≈ 0.544 µM) | 3.13 (≈ 8.52 µM) | 0.39 (≈ 1.06 µM) | 3.13 (≈ 8.52 µM) | 0.78 (≈ 2.12 µM) | 25 (≈ 68 µM) | 0.2 (≈ 0.544 µM) | 25 (≈ 68 µM) | 50 (≈ 136 µM) | 6.25 (≈ 17 µM) | 0.1 (≈ 0.272 µM) | MIC [21]: 0.2 µg/mL (≈ 0.544 µM); MIC [22]: 12.5 µg/mL (≈ 34 µM); MIC [23]: 0.05 µg/mL (≈ 0.136 µM); MIC [24]: 0.1 µg/mL (≈ 0.272 µM); MIC [25]: 0.2 µg/mL (≈ 0.544 µM); MIC [26]: 0.1 µg/mL (≈ 0.272 µM); MIC [27]: 0.05 µg/mL (≈ 0.136 µM); Number of convulsion induced / Number of animals ([28]; 100 mg/kg (i.p.)): 6 / 6
